# Assay results reported in ChEMBL document CHEMBL5724914, “Linking interpersonal differences in gut microbiota composition and drug biotransformation activity” (2024).
# Assays:
# [1] = (§1) The drug is tested on Z-028 corresponding to mouse gut metagenome with ENA study accession number: PRJEB37062 and ENA sample accession number: ERS12561827 for biotransformation under anaerobic condition. The drug concentrations were measured over 9 timepoints collected between 0 and 24 hours of incubation by liquid-chromatography-coupled mass spectrometry (LC–MS); details: 2 µM
# [2] = as §1, with “Z-026” for “Z-028”, “to” for “to mouse gut”, “ERS12561825” for “ERS12561827”; details: 2 µM
# [3] = as §1, with “Z-025” for “Z-028”, “rabbit” for “mouse”, “ERS12561824” for “ERS12561827”; details: 2 µM
# [4] = as §1, with “Z-024” for “Z-028”, “pig” for “mouse”, “ERS12561823” for “ERS12561827”; details: 2 µM
# [5] = as §1, with “Z-017” for “Z-028”, “ERS12561816” for “ERS12561827”; details: 2 µM
# [6] = as §1, with “Z-016” for “Z-028”, “ERS12561815” for “ERS12561827”; details: 2 µM
# [7] = as §1, with “Z-012” for “Z-028”, “to” for “to mouse gut”, “ERS12561812” for “ERS12561827”; details: 2 µM
# [8] = as §1, with “Z-011” for “Z-028”, “ERS12561811” for “ERS12561827”; details: 2 µM
# [9] = as §1, with “Z-010” for “Z-028”, “to” for “to mouse gut”, “ERS12561810” for “ERS12561827”; details: 2 µM
# [10] = as §1, with “Z-005” for “Z-028”, “to” for “to mouse gut”, “ERS12561805” for “ERS12561827”; details: 2 µM
# [11] = as §1, with “WLS-086” for “Z-028”, “human” for “mouse”, “ERS12561752” for “ERS12561827”; details: 2 µM
# [12] = human gut metagenome, 24 h, 2 µM
# [13] = human gut metagenome, 24 h, 2 µM; remark: listed apart in the source
# [14] = human gut metagenome, 24 h, 2 µM; remark: listed apart in the source
# [15] = human gut metagenome, 24 h, 2 µM; remark: listed apart in the source
# [16] = human gut metagenome, 24 h, 2 µM; remark: listed apart in the source
# [17] = human gut metagenome, 24 h, 2 µM; remark: listed apart in the source
# [18] = human gut metagenome, 24 h, 2 µM; remark: listed apart in the source
# [19] = human gut metagenome, 24 h, 2 µM; remark: listed apart in the source
# [20] = human gut metagenome, 24 h, 2 µM; remark: listed apart in the source
# Note: call rule not given here.
smiles,measurement,setting,value
O=C1N=C([O-])NC1(c1ccccc1)c1ccccc1.[Na+] [PHENYTOIN SODIUM],Bacterial Biotransformation,[1],Compound NOT metabolized
same,Bacterial Biotransformation,[2],Compound NOT metabolized
same,Bacterial Biotransformation,[3],Compound NOT metabolized
same,Bacterial Biotransformation,[4],Compound NOT metabolized
same,Bacterial Biotransformation,[5],Compound NOT metabolized
same,Bacterial Biotransformation,[6],Compound NOT metabolized
same,Bacterial Biotransformation,[7],Compound NOT metabolized
same,Bacterial Biotransformation,[8],Compound NOT metabolized
same,Bacterial Biotransformation,[9],Compound NOT metabolized
same,Bacterial Biotransformation,[10],Compound NOT metabolized
same,Bacterial Biotransformation,[11],Compound metabolized
same,Bacterial Biotransformation,[12],Compound metabolized
same,Bacterial Biotransformation,[13],Compound metabolized
same,Bacterial Biotransformation,[14],Compound NOT metabolized
same,Bacterial Biotransformation,[15],Compound metabolized
same,Bacterial Biotransformation,[16],Compound NOT metabolized
same,Bacterial Biotransformation,[17],Compound NOT metabolized
same,Bacterial Biotransformation,[18],Compound metabolized
same,Bacterial Biotransformation,[19],Compound NOT metabolized
same,Bacterial Biotransformation,[20],Compound metabolized
